Reference: paper PMC7271629 (ACS chemical biology, 2020)

What was measured:
[1] = tested on: c-Myc expression in K562 chronic myelogenous leukemia cells; experiment: c-Myc expression in K562 cells; format: cell-based, human
[2] = tested on: BD1 and BD2 within a BET protein; conditions: cited from earlier work

| SMILES | effect on c-Myc expression [1] | affinity of bivalent engagement of BD1 and BD2 [2] |
| --- | --- | --- |
| Cc1sc2c(c1C)C(c1ccc(Cl)cc1)=N[C@@H](CC(=O)OC(C)(C)C)c1nnc(C)n1-2 [JQ1] | attenuated c-Myc expression |  |
| Cc1sc2c(c1C)C(c1ccc(Cl)cc1)=N[C@@H](CC(=O)NCCOCCOCCOCCOCCOCCOCCOCCNC(=O)C[C@@H]1N=C(c3ccc(Cl)cc3)c3c(sc(C)c3C)-n3c(C)nnc31)c1nnc(C)n1-2 [MT1] |  | subnanomolar |
